The results in this text go back to patent US20100234379A1, “Dual modulation of endocannabinoid transport and fatty-acid amide hydrolase for treatment of excitotoxicity” (priority 2005, published 2010).

As a reminder, the melting point is the temperature of the solid-liquid transition.

One data set deals with AMPA-injected dorsal hippocampus of adult Sprague-Dawley rats.
Experiment: not given
The class given is in vivo, rat. The conditions noted are these: co-injected with 63 nmol AMPA; 4-7 days post-injection.
For the compound `CCCCC/C=C\C/C=C\C/C=C\C/C=C\CCCC(=O)N[C@H](C)CO` [A, R-methanandamide], the “protection of postsynaptic GluR1 levels (reduction of GluR1 decline), average” value is recorded as 58%.

Staying with this data set, now noted: co-injected with 63 nmol AMPA; A 250 nmol; B 0.75 nmol and C 75 nmol.
Regarding `CCCCC/C=C\C/C=C\C/C=C\C/C=C\CCCC(=O)N[C@H](C)CO` [A, R-methanandamide], the “reduction of spectrin BDPN evident 4-7 days post-insult” value is on record as 78%.

The data set is the same for the next values; noted with them: co-injected with AMPA, 4-7 days.
In the case of `CCCCC/C=C\C/C=C\C/C=C\C/C=C\CCCC(=O)N[C@H](C)CO` [A, R-methanandamide], the “protection of presynaptic markers (synapsin II, synaptophysin)” value was “protected by a similar level”.

Another data set relates to ERK and FAK (pERK2, pFAK). The experiment in a line: Activation of ERK and FAK (CB1 signaling) in hippocampal slice cultures, immunoblot. The class given is cell-based, rat. To be noted: H 10 μM. For orientation: In western blotting, separated proteins are transferred to a membrane and probed.
Procedure: A: Untreated slices were used to determine basal antigen levels (lane 1), while other slices were exposed to the CB1 agonist R-methanandamide (A) in the absence (lane 2) or presence of the antagonist H (lane 3). B: Integrated optical densities for pERK2 (mean±SEM) were determined by image analysis (ANOVA: P=0.014). C: Treatment groups include control slices (lane 1) and slices treated with the FAAH inhibitor B (lane 2), the transporter inhibitor C (lane 3), the B/C combination (lane 4), or B/C with 20 μM F (lane 5). D: Image analysis data for pERK2 are shown (ANOVA: P=0.015).
Hippocampal slice cultures. Sprague-Dawley rats (Charles River Laboratories; Wilmington, Mass.) were housed following guidelines from National Institutes of Health. […] Slices were maintained in culture for a 15-20-day maturation period before experiments were initiated. Activation of extracellular signal regulated-kinase (ERK) and focal adhesion kinase (FAK). […] Other slices were treated with 100-500 nM B, 10-50 μM C, or a combination of the two in the absence or presence of either H or F (Cal-Biochem). […] Integrated optical density of the bands was determined at high resolution with BIOQUANT software (R & M Biometrics, Nashville, Tenn.). […]
`Cc1c(C(=O)NN2CCOCC2)nn(-c2ccc(Cl)cc2Cl)c1-c1ccc(I)cc1` [H]: the “prevention of the effects of agonist treatment and of B/C potentiation on ERK/FAK activation by CB1 antagonist” value was “prevented”.

The data set is the same for the next values; noted with them: slices treated 30 min; A 10-50 μM; 100 nM B and 10 μM C applied individually; B/C combination.
Regarding `CCCCC/C=C\C/C=C\C/C=C\C/C=C\CCCC(=O)N[C@H](C)CO` [A, R-methanandamide], the “activation of ERK and FAK (pERK2, pFAK over basal levels)” value was “results in the activation of extracellular signal regulated-kinase (ERK) as well as focal adhesion kinase (FAK)”.

Another data set has as its system hippocampal slice cultures. Briefly: In vitro excitotoxicity: AMPA insult in cultured hippocampal slices, immunoblot for BDPN and GluR1. The conditions noted are these: 100 μM AMPA 20 min, drug post-insult, 24 h; B/C 0.5 μM and 50 μM.
Procedure: Hippocampal slice cultures were infused with an excitotoxic level of AMPA for 20 min, followed by a 10-min washout period. […] The slices were harvested 24 h post-insult in groups of 6-8 each, along with untreated sister cultures, and assessed by immunoblotting for calpain-mediated spectrin breakdown product BDPN (A, C) and the postsynaptic marker GluR1 (B, D). Representative antigen staining is shown with a protein load control (con) from the same blots. Graphs contain integrated optical densities (mean±SEM) as determined by image analysis.
Chemicals and antibodies. […] Glutamatergic ligands and antagonists were obtained from Tocris (Ellisville, Mo.). […] Hippocampal slice cultures. Sprague-Dawley rats (Charles River Laboratories; Wilmington, Mass.) were housed following guidelines from National Institutes of Health. […] Slices were maintained in culture for a 15-20-day maturation period before experiments were initiated. […] Integrated optical density of the bands was determined at high resolution with BIOQUANT software (R & M Biometrics, Nashville, Tenn.). […] At such time, slices were rapidly harvested, homogenized in lysis buffer, and analyzed by immunoblot for BDPN, GluR1, and protein load control.
With `CCCCC/C=C\C/C=C\C/C=C\C/C=C\CCCC(=O)N[C@H](C)CO` [A, R-methanandamide], the “reduction of cytoskeletal damage (calpain-mediated spectrin breakdown product BDPN)” value is listed as 72%.

Test system in another data set: not given
Experiment: not given
Conditions: not given
The compound `O=S(=O)(F)CCCCCCCc1ccc(OCc2ccccc2)cc1` displayed a melting point of 35 to 38 °C.
The compound `O=S(=O)(F)CCCCCc1ccc(OCc2ccccc2)cc1` displayed a melting point of 66 to 68 °C.
With `O=S(=O)(F)CCCCCCCc1ccc(O)cc1`, the melting point lay in the range of 47 to 51 °C.
In turn, `O=S(=O)(F)CCCCCc1ccc(O)cc1` registered a melting point of 32 to 35 °C.
The compound `O=S(=O)(F)CCCCOc1ccccc1` came in with a melting point of 74 to 76 °C.
With `COS(=O)(=O)CCCCCCCc1ccc(OCc2ccccc2)cc1`, the melting point was 57 to 59 °C.
On to `O=C(CCCOc1ccc(OCc2ccccc2)cc1)C(F)(F)F`, for which the melting point was 59 to 61 °C.
In turn, `O=C(CCCCCOc1ccccc1OCc1ccccc1)C(F)(F)F` returned a melting point of 31 to 32 °C.
On the same count and under the same terms, the figure for `O=C(CCCCOc1ccccc1)C(F)(F)F` is 50 to 51 °C; for `O=C(CCCCOc1ccc(OCc2ccccc2)cc1)C(F)(F)F` it is 95.5 to 96 °C; for `O=C(CCCCCOc1ccc(OCc2ccccc2)cc1)C(F)(F)F` it is 59 to 60 °C.
`O=C(CCCCCCOc1ccc(OCc2ccccc2)cc1)C(F)(F)F` had a melting point of 82 to 83 °C.
Regarding `O=C(CCCOc1ccccc1OCc1ccccc1)C(F)(F)F`, the melting point was 50 to 51 °C.
`O=C(CCCCOc1ccc(O)cc1)C(F)(F)F` gave a melting point of 63 to 64 °C.
As for `O=C(CCCCCCOc1ccc(O)cc1)C(F)(F)F`, the melting point lay within 61 to 62 °C.
On the same count and under the same terms, the figure for `O=C(CCCCOc1ccccc1O)C(F)(F)F` is 51 to 52 °C.
Compound `O=C(NCCCc1ccccc1)NCc1ccccn1` yielded a melting point of 89 to 90 °C.
Regarding `O=C(NCCCc1ccccc1)Nc1ccccn1`, the melting point lay in the range of 127 to 128 °C.
Compound `Cc1nnc(C(=O)CCCCCCOc2ccccc2)o1` showed a melting point of 75 to 77 °C.
`Cc1nnc(C(=O)CCCCCCOc2ccc(OCc3ccccc3)cc2)o1`: the melting point lay within 118 to 120 °C.
`Cc1nnc(C(=O)CCCCCCOc2ccc(O)cc2)o1` registered a melting point of 134 to 135 °C.
Regarding `O=C1c2ccccc2S(=O)(=O)N1CCCCOc1ccccc1`, the melting point was 92 to 94 °C.
For the compound `O=C1c2ccccc2S(=O)(=O)N1CCCCOc1ccc(OCc2ccccc2)cc1`, the melting point fell in the range of 82 to 84 °C.
With `O=C1c2ccccc2S(=O)(=O)N1CCCCOc1ccc(O)cc1`, the melting point lay within 107 to 109 °C.
In the case of `Oc1cccc(OCCCC(O)(O)C(F)(F)F)c1` (hydrate or solvate), the melting point is 76 to 77 °C.
